Source: publication PMC10175918 (Communications Biology, 2023)
Like-named read-outs stand apart in the source and are kept apart here.

Legend:
Assay in all cases: TGFα-shedding assay-based GPCR screening with chimeric Gα subunit proteins
Format in all cases: cell-based
348 GPCRs [1] = target: T1, 348 GPCRs (Homo sapiens, UniProt O60883); settings: 10µM, Favipiravir 100μM
T1 construct: expressed in transfected cells; host or cells: HEK293A
T1 sequence (O60883 26-481): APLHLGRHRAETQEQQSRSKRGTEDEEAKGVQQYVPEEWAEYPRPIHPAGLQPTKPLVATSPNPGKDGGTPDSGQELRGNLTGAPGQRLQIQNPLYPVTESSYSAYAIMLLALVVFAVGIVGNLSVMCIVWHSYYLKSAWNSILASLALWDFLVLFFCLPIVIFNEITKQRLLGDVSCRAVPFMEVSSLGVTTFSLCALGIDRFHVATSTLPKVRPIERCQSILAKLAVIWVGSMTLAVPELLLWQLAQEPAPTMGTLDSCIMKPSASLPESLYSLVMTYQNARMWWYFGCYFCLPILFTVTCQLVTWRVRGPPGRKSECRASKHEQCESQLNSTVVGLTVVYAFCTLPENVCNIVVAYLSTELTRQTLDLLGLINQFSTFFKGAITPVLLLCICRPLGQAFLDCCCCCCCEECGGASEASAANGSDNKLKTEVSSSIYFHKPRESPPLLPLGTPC

348 GPCRs [2] = target: T2, 348 GPCRs (Homo sapiens, UniProt P30411); settings: 10µM, Favipiravir 100μM
T2 sequence (P30411 1-391): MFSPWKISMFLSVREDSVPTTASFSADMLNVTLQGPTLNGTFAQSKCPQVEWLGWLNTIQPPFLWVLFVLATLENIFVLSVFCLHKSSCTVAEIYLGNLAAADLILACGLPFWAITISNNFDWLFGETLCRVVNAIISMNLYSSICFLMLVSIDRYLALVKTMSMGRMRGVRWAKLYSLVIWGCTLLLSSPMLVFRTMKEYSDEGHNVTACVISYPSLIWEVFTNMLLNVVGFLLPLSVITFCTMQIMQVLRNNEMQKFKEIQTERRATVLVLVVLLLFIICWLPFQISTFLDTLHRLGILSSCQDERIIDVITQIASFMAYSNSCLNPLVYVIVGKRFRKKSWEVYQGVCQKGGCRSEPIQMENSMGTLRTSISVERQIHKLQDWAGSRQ

348 GPCRs [3] = target: T3, 348 GPCRs (Homo sapiens, UniProt P30550); settings: 10µM, Favipiravir 100μM
T3 construct: expressed in transfected cells; host or cells: HEK293A

348 GPCRs [4] = target: 348 GPCRs (Homo sapiens, UniProt P51681); settings: 10µM, Favipiravir 100μM
348 GPCRs [5] = target: T4, 348 GPCRs (Homo sapiens, UniProt Q15077)
T4 construct: expressed in transfected cells; host or cells: HEK293A

348 GPCRs [6] = target: T5, 348 GPCRs (Homo sapiens, UniProt Q6W5P4); settings: 10µM, Favipiravir 100μM
T5 construct: expressed in transfected cells; host or cells: HEK293A
T5 sequence (Q6W5P4 1-371): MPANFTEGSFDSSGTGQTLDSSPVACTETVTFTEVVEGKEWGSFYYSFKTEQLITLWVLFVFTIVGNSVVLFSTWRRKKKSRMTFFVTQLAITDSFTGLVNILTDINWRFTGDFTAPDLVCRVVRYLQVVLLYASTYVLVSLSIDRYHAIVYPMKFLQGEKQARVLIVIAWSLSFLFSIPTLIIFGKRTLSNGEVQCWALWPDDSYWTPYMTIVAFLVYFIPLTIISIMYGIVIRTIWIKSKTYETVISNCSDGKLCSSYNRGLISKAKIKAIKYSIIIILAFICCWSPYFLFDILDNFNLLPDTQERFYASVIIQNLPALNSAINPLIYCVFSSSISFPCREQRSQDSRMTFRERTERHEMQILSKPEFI

348 GPCRs [7] = target: T6, 348 GPCRs (Homo sapiens, UniProt Q969N4); settings: 10µM, Favipiravir 100μM
T6 construct: expressed in transfected cells; host or cells: HEK293A
T6 sequence (Q969N4 1-342): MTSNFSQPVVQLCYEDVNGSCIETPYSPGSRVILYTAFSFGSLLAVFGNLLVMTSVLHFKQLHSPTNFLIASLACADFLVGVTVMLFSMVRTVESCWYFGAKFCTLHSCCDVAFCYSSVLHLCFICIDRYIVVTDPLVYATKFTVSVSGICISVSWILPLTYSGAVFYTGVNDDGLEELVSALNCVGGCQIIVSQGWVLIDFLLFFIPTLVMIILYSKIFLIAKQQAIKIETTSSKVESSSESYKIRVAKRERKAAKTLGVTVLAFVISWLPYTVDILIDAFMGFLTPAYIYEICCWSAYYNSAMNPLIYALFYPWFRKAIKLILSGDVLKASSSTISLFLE

348 GPCRs [8] = target: T7, 348 GPCRs (Homo sapiens, UniProt Q96AM1); settings: 10µM, Favipiravir 100μM
T7 construct: expressed in transfected cells; host or cells: HEK293A

348 GPCRs [9] = target: T8, 348 GPCRs (Homo sapiens, UniProt Q99680); settings: 10µM, Favipiravir 100μM
T8 construct: expressed in transfected cells; host or cells: HEK293A

348 GPCRs [10] = target: T9, 348 GPCRs (Homo sapiens, UniProt Q9BZJ6)
T9 construct: expressed in transfected cells; host or cells: HEK293A

348 GPCRs [11] = target: T10, 348 GPCRs (Homo sapiens, UniProt Q9H1C0); settings: 10µM, Favipiravir 100μM
T10 construct: expressed in transfected cells; host or cells: HEK293A

348 GPCRs [12] = target: T11, 348 GPCRs (Homo sapiens, UniProt Q9NQS5); settings: 10µM, Favipiravir 100μM
T11 construct: expressed in transfected cells; host or cells: HEK293A

[13] = GPR37L1 (G Protein-Coupled Receptor 37 Like 1), read-out: % GPCR activation compared to TPA
[14] = B2 (bradykinin receptor B2), read-out: % GPCR activation compared to TPA
[15] = GRPR (gastrin-releasing peptide receptor), read-out: % GPCR activation compared to TPA
[16] = CCR5, CCR5 (C-C motif chemokine receptor 5), read-out: % GPCR activation compared to TPA
[17] = GPCR P2Y6 (pyrimidinergic receptor P2Y, G-protein coupled, 6), read-out: % GPCR activation compared to TPA
[18] = NPS (neuropeptide S receptor 1), read-out: % GPCR activation compared to TPA
[19] = TAAR8 (trace amine associated receptor 8), read-out: % GPCR activation compared to TPA
[20] = MRGF (MAS-related GPR, member F), read-out: % GPCR activation compared to TPA
[21] = MRGPRF (MAS-related GPR, member F), read-out: % GPCR activation compared to TPA
[22] = GPR22 (G Protein-Coupled Receptor 22), read-out: % GPCR activation compared to TPA
[23] = GPCR GPR63 (G Protein-Coupled Receptor 63), read-out: % GPCR activation compared to TPA
[24] = LPAR5 (lysophosphatidic acid receptor 5), read-out: % GPCR activation compared to TPA
[25] = GPR84 (G protein-coupled receptor 84), read-out: % GPCR activation compared to TPA
[26] = read-out: % GPCR activation compared to TPA, GPR37L1 (G Protein-Coupled Receptor 37 Like 1)
[27] = read-out: % GPCR activation compared to TPA, B2 (bradykinin receptor B2)
[28] = read-out: % GPCR activation compared to TPA, GRPR (gastrin-releasing peptide receptor)
[29] = CCR5, read-out: % GPCR activation compared to TPA, CCR5 (C-C motif chemokine receptor 5)
[30] = read-out: % GPCR activation compared to TPA, GPCR P2Y6 (pyrimidinergic receptor P2Y, G-protein coupled, 6)
[31] = read-out: % GPCR activation compared to TPA, NPS (neuropeptide S receptor 1)
[32] = read-out: % GPCR activation compared to TPA, TAAR8 (trace amine associated receptor 8)
[33] = read-out: % GPCR activation compared to TPA, MRGF (MAS-related GPR, member F)
[34] = read-out: % GPCR activation compared to TPA, MRGPRF (MAS-related GPR, member F)
[35] = read-out: % GPCR activation compared to TPA, GPR22 (G Protein-Coupled Receptor 22)
[36] = read-out: % GPCR activation compared to TPA, GPCR GPR63 (G Protein-Coupled Receptor 63)
[37] = read-out: % GPCR activation compared to TPA, LPAR5 (lysophosphatidic acid receptor 5)
[38] = read-out: % GPCR activation compared to TPA, GPR84 (G protein-coupled receptor 84)

348 GPCRs (Homo sapiens, UniProt P51681), sequence (P51681 whole entry): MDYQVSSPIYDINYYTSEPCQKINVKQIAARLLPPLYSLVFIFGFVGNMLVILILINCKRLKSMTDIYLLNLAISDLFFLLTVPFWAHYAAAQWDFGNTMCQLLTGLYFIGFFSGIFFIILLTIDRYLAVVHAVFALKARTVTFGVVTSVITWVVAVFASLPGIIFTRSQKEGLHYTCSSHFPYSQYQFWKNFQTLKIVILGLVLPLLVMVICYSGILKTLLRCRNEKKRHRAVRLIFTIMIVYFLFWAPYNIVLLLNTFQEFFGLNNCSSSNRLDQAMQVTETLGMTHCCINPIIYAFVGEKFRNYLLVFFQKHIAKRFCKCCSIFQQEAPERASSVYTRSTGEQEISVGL
T3 sequence (P30550 whole entry): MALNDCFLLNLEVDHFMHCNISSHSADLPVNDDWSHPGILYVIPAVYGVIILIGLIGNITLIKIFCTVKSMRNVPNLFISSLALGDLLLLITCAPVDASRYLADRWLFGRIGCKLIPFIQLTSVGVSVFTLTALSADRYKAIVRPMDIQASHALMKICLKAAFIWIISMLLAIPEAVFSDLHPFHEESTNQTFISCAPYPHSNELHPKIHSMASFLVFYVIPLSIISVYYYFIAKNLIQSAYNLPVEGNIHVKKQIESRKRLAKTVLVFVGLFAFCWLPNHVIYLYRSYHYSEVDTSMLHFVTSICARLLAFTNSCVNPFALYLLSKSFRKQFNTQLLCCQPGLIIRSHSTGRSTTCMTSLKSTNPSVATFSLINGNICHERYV
T10 sequence (Q9H1C0 whole entry): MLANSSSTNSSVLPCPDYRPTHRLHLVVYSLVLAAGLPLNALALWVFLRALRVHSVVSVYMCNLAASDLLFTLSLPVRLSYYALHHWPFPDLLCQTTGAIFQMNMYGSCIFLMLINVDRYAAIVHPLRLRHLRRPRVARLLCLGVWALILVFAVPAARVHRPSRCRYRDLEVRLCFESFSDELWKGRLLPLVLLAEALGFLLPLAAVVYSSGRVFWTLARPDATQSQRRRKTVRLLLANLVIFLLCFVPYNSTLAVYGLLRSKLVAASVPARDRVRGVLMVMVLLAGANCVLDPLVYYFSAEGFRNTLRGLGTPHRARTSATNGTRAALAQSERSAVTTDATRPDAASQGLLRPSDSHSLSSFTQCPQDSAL
T9 sequence (Q9BZJ6 whole entry): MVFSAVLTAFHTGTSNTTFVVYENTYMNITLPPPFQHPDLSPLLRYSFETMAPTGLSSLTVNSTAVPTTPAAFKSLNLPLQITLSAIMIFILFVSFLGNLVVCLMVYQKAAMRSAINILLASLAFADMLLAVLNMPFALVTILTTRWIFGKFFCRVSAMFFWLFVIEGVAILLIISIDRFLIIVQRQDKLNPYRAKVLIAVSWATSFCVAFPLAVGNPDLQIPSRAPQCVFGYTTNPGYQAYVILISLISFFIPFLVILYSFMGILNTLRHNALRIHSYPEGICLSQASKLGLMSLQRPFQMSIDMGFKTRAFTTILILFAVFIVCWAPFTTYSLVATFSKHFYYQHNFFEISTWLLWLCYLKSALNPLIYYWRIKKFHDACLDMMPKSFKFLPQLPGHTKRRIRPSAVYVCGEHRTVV
T8 sequence (Q99680 whole entry): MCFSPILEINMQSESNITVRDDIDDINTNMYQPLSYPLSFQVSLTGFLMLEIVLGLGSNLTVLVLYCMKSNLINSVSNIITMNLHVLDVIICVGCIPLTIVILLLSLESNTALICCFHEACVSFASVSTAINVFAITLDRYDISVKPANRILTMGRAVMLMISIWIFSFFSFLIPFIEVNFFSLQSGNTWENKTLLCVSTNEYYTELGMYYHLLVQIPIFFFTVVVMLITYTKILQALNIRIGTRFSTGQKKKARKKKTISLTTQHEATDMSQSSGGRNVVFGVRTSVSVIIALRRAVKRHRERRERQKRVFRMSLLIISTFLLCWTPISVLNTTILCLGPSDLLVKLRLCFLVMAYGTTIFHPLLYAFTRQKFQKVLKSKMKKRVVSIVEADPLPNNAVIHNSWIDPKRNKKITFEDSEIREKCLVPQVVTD
T7 sequence (Q96AM1 whole entry): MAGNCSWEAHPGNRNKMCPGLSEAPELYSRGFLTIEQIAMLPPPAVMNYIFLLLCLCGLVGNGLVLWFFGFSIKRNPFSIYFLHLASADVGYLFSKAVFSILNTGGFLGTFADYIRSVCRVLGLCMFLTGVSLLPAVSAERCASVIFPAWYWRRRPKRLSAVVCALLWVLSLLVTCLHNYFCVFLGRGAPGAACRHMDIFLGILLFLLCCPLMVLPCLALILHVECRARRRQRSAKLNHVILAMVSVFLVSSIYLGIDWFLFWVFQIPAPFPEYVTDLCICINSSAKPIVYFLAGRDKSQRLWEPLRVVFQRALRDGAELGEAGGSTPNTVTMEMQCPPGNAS
T11 sequence (Q9NQS5 whole entry): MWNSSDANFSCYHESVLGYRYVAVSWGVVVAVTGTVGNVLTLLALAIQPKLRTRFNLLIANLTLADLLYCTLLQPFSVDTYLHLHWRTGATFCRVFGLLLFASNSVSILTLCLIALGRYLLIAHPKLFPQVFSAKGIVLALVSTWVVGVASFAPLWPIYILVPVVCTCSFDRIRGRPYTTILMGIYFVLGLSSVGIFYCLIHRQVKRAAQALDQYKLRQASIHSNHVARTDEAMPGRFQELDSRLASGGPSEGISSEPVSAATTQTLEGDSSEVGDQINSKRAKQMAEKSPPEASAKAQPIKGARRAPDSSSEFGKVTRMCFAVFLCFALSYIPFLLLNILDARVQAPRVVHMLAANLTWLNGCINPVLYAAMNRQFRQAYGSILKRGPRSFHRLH
T4 sequence (Q15077 whole entry): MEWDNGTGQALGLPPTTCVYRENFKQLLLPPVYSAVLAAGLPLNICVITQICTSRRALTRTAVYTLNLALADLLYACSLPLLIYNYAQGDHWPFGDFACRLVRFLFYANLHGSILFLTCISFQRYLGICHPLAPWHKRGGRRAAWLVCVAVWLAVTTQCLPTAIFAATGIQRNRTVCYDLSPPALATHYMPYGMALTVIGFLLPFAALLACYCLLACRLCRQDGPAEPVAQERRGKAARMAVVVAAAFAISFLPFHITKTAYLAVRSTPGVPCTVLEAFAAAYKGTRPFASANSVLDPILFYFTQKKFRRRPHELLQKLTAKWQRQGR

activation at 10 µM (348 GPCRs [1]; [13]) | activation at 10 µM (348 GPCRs [2]; [14]) | activation at 10 µM (348 GPCRs [3]; [15]) | activation at 10 µM (348 GPCRs [4]; [16]) | activation at 10 µM (348 GPCRs [5]; [17]) | activation at 10 µM (348 GPCRs [6]; [18]) | activation at 100 µM (348 GPCRs [7]; [19]) | activation at 100 µM (348 GPCRs [8]; [20]) | activation at 100 µM (348 GPCRs [8]; [21]) | activation at 100 µM (348 GPCRs [9]; [22]) | activation at 10 µM (348 GPCRs [10]; [23]) | activation at 10 µM (348 GPCRs [11]; [24]) | activation at 100 µM (348 GPCRs [12]; [25]) | SMILES | activation at 10 µM (348 GPCRs [1]; [26]) | activation at 10 µM (348 GPCRs [2]; [27]) | activation at 10 µM (348 GPCRs [3]; [28]) | activation at 10 µM (348 GPCRs [4]; [29]) | activation at 10 µM (348 GPCRs [5]; [30]) | activation at 10 µM (348 GPCRs [6]; [31]) | activation at 100 µM (348 GPCRs [7]; [32]) | other results
-2.03% | -3% | -1.56% | -0.436% | -8.65% | -1.43% | -1.62% | 4.76% | -0.751% | 0.701% | 2.45% | 2.96% | 5.15% | N#C[C@@]1(c2ccc3c(N)ncnn23)O[C@H](CO)[C@@H](O)[C@H]1O [GS441524] |  |  |  |  |  |  |  | 
-2.32% | 1.08% | -1.14% | 1.19% |  | -0.693% | 0.473% | 0.745% | -1.13% | -0.704% |  | -1.99% | -0.768% | NC(=O)c1nc(F)cnc1O [favipiravir, 6-fluoro-3-hydroxy-2-pyrazinecarboxamide] |  |  |  |  |  |  |  | activation at 100 µM (348 GPCRs [5]; GPCR P2Y6 (pyrimidinergic receptor P2Y, G-protein coupled, 6), 100μM, read-out: % GPCR activation compared to TPA): -0.384%; activation at 100 µM (348 GPCRs [10]; GPCR GPR63 (G Protein-Coupled Receptor 63), 100μM, read-out: % GPCR activation compared to TPA): -0.607%
-1.63% | 1.04% | -3.58% | -2.34% | -17.8% | -0.116% | -0.135% | -3.54% | -0.471% | -2.13% | -0.167% | -2.73% | -3.53% | CC(C)C(=O)OC[C@H]1O[C@@H](n2ccc(NO)nc2=O)[C@H](O)[C@@H]1O [molnupiravir] |  |  |  |  |  |  |  | 

The next lines start with the molecule.

SMILES | activation at 10 µM (348 GPCRs [1]; [13]) | activation at 10 µM (348 GPCRs [2]; [14]) | activation at 10 µM (348 GPCRs [3]; [15]) | activation at 10 µM (348 GPCRs [4]; [16]) | activation at 10 µM (348 GPCRs [5]; [17]) | activation at 10 µM (348 GPCRs [6]; [18]) | activation at 100 µM (348 GPCRs [7]; [19]) | activation at 100 µM (348 GPCRs [8]; [20]) | activation at 100 µM (348 GPCRs [8]; [21]) | activation at 100 µM (348 GPCRs [9]; [22]) | activation at 10 µM (348 GPCRs [10]; [23]) | activation at 10 µM (348 GPCRs [11]; [24]) | activation at 100 µM (348 GPCRs [12]; [25]) | activation at 10 µM (348 GPCRs [1]; [26]) | activation at 10 µM (348 GPCRs [2]; [27]) | activation at 10 µM (348 GPCRs [3]; [28]) | activation at 10 µM (348 GPCRs [4]; [29]) | activation at 10 µM (348 GPCRs [5]; [30]) | activation at 10 µM (348 GPCRs [6]; [31]) | activation at 100 µM (348 GPCRs [7]; [32]) | other results
CCC(CC)COC(=O)[C@H](C)N[P@](=O)(OC[C@H]1O[C@@](C#N)(c2ccc3c(N)ncnn23)[C@H](O)[C@@H]1O)Oc1ccccc1 [remdesivir] |  |  |  |  |  |  |  |  |  |  |  |  |  | -2.18% | 1.57% | -2.02% | 2.38% | 1.18% | -0.795% | 0.465% | activation at 100 µM (348 GPCRs [8]; [33]): 0.574%; activation at 100 µM (348 GPCRs [8]; [34]): -0.326%; activation at 100 µM (348 GPCRs [9]; [35]): -1.09%; activation at 10 µM (348 GPCRs [10]; [36]): 1.1%; activation at 10 µM (348 GPCRs [11]; [37]): 2.15%; activation at 100 µM (348 GPCRs [12]; [38]): 2.57%
CC(C)OC(=O)[C@H](C)N[P@](=O)(OC[C@H]1O[C@@H](n2ccc(=O)[nH]c2=O)[C@](C)(F)[C@@H]1O)Oc1ccccc1 [sofosbuvir] |  |  |  |  |  |  |  |  |  |  |  |  |  | -1.91% | 0.561% | -1.24% | -0.363% | -26.6% | 0.112% | -2.21% | activation at 100 µM (348 GPCRs [8]; [33]): -2.71%; activation at 100 µM (348 GPCRs [8]; [34]): -0.0367%; activation at 100 µM (348 GPCRs [9]; [35]): 0.408%; activation at 10 µM (348 GPCRs [10]; [36]): 1.22%; activation at 10 µM (348 GPCRs [11]; [37]): 1.1%; activation at 100 µM (348 GPCRs [12]; [38]): -3.67%
